The text below walks through data of patent US8269000B2, “Substituted pyrimidine and triazine compounds” (Gruenenthal GmbH, priority 2008, dated 2012).

The target of one assay is T1, rat B1R (Rattus norvegicus, UniProt P97583).
T1 construct: expressed in transfected cells; host or cells: CHO K1 cells
T1 sequence (P97583 1-337): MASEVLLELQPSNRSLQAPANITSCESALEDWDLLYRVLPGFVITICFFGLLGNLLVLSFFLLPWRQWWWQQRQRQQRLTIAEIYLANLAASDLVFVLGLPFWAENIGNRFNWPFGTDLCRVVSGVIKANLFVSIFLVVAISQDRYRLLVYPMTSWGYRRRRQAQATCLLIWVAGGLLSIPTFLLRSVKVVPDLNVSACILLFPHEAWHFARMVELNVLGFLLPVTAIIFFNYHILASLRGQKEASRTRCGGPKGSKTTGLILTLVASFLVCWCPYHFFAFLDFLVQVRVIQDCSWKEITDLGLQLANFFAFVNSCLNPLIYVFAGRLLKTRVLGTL
Nature of the assay: FLIPR Ca2+ functional study on bradykinin receptor 1 (rB1R CHO K1 cells). It is filed as cell-based. The conditions noted are these: % inhibition rat B1R at 10 μM. In a few lines: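 CHO K1 cells stably expressing human or rat B1R were loaded with Fluo-4 and read on FLIPR (ex 488/em 540 nm, peak counts). Test compound (10 μM, or a concentration range for IC50) was added first for % activation versus control agonist; after 10-20 min, EC80 Lys-Des-Arg9-bradykinin (human) or Des-Arg9-bradykinin (rat) was added, giving % inhibition of maximum. n=2-3, N≥2.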
For `COc1cc(C)c(S(=O)(=O)N2CCC[C@H]2COc2ccnc(N3CCN(C4CCN(C)CC4)CC3)n2)c(C)c1` [H_CC-025, 4-[[(2S)-1-(4-methoxy-2,6-dimethylphenyl)sulfonyl-2-pyrrlidinyl]methoxy]-2-[4-(1-methyl-4-piperidinyl)-1-piperazinyl]pyrimidine], the “% inh. (rat B1R) 10 μM” value came out at 65%.

For the compound `COc1cc(C)c(S(=O)(=O)N(C)C(COc2nccc(N3CCC(c4nc(-c5ccncc5)no4)CC3)n2)c2ccccc2)c(C)c1` (stereo not shown) [G_CC-134], the “% inh. (rat B1R) 10 μM” value is recorded as 88%. On the same count and under the same terms, under `COc1cc(C)c(S(=O)(=O)N2CCC[C@H]2COc2ccnc(N3CCC4(CC3)C(=O)NCN4c3ccccc3)n2)c(C)c1` [H_CC-024, 8-[4-[[(2S)-1-(4-methoxy-2,6-dimethylphenyl)sulfonyl-2-pyrrlidinyl]methoxy]-2-pyrimidinyl]-4-phenyl-2,4,8-triazaspiro[4.5]decan-1-one] stands 97%. Consider `COc1cc(C)c(S(=O)(=O)N2CCCCC2COc2ccnc(N3CCN(CC4CCN(C)CC4)CC3)n2)c(C)c1` (stereo not shown) [H_CC-006, 4-[[1-(4-methoxy-2,6-dimethylphenyl)sulfonyl-2-pipendinyl]methoxy]-2-[4-[(1-methyl-4-pipendinyl)methyl]-1-piperazinyl]pyrimidine], for which the “% inh. (rat B1R) 10 μM” value was 61%. Same read-out and setting: the figure for `COc1cc(C)c(S(=O)(=O)N(C)C(COc2nccc(N3CCN(C4CCN(C)CC4)CC3)n2)c2ccccc2)c(C)c1` (stereo not shown) [G_CC-059, 4-methoxy-N,2,6-trimethyl-N-[2-[[4-[4-(1-methyl-4-pipendinyl)-1-piperazinyl]-2-pyrimidinyl]oxy]-1-phenylethyl]benzenesulfonamide] is 98%.

Staying with this assay, now noted: CHO-K1, % inhibition rat B1R at 10 μM, read-out: % inh. (rat B1R) 10 μM.
`COc1cc(C)c(S(=O)(=O)N2CCCCC2COc2nccc(N3CCC(n4c(=O)[nH]c5cc(Cl)ccc54)CC3)n2)c(C)c1` (stereo not shown) [G_CC-024, 6-chloro-3-[1-[2-[[1-(4-methoxy-2,6-dimethylphenyl)sulfonyl-2-piperidinyl]methoxy]-4-pyrimidinyl]-4-piperidinyl]-1H-benzimidazol-2-one]: the inhibition at 10 µM came to 73%. Take `COc1cc(C)c(S(=O)(=O)N2CCCCC2COc2nccc(N3CCC4(CC3)OCc3ccccc34)n2)c(C)c1` (stereo not shown) [G_CC-023, 1′-[2-[[1-(4-methoxy-2,6-dimethylphenyl)sulfonyl-2-piperidinyl]methoxy]-4-pyrimidinyl]spiro[1H-isobenzofuran-3,4′-piperidine]]: the inhibition at 10 µM came out at 50%. Same read-out and setting: the figure for `COc1cc(C)c(S(=O)(=O)N2CCCCC2COc2ccnc(N3CCC4(CCN(Cc5ccc(F)cc5)C4=O)CC3)n2)c(C)c1` (stereo not shown) [H_CC-030, 3-[(4-fluorophenyl)methyl]-8-[4-[[1-(4-methoxy-2,6-dimethylphenyl)sulfonyl-2-piperidinyl]methoxy]-2-pyrimidinyl]-3,8-diazaspiro[4.5]decan-4-one] is 49%. Same read-out and setting: the figure for `COc1cc(C)c(S(=O)(=O)N2CCCCC2COc2ccnc(N(C)CCN3CCC(c4ccccc4)(N4CCCC4)CC3)n2)c(C)c1` (stereo not shown) [H_CC-063, [4-[[1-[(4-methoxy-2,6-dimethyl-phenyl)sulfonyl]-piperidin-2-yl]-methoxy]-pyrimidin-2-yl]-methyl-[2-(4-phenyl-4-pyrrolidin-1-yl-piperidin-1-yl)-ethyl]-amine] is 82%; for `COc1cc(C)c(S(=O)(=O)N2CCCCC2COc2nccc(N3CCC(C)(N4CCOCC4)CC3)n2)c(C)c1` (stereo not shown) [G_CC-131, 4-[1-[2-[[1-[(4-methoxy-2,6-dimethyl-phenyl)sulfonyl]-piperidin-2-yl]-methoxy]-pyrimidin-4-yl]-4-methyl-piperidin-4-yl]-morpholine] it is 88%. In the case of `COc1cc(C)c(S(=O)(=O)N2CCCCC2COc2nccc(N3CCC(c4ccccc4)(N4CCCC4)CC3)n2)c(C)c1` (stereo not shown) [G_CC-121, 2-[[1-[(4-methoxy-2,6-dimethyl-phenyl)sulfonyl]-piperidin-2-yl]-methoxy]-4-(4-phenyl-4-pyrrolidin-1-yl-piperidin-1-yl)-pyrimidine], the inhibition at 10 µM is 75%.

On to `COc1cc(C)c(S(=O)(=O)N(C)CCOc2nccc(N3CCC4(CC3)CCN(c3ccc(F)cc3)C4=O)n2)c(C)c1` [G_CC-042, N-[2-[[4-[3-(4-fluorophenyl)-4-oxo-3,8-diazaspiro[4.5]decan-8-yl]-2-pyrimidinyl]oxy]ethyl]-4-methoxy-N,2,6-trimethylbenzenesulfonamide], for which the inhibition at 10 µM is 87%. Same read-out and setting: under `COc1cc(C)c(S(=O)(=O)N2CCCCC2COc2nccc(N3CCC(CCCN4CCCC4)(c4cccnc4)CC3)n2)c(C)c1` (stereo not shown) [G_CC-080, 2-[[1-[(4-methoxy-2,6-dimethyl-phenyl)sulfonyl]-piperidin-2-yl]-methoxy]-4-[4-pyridin-3-yl-4-(3-pyrrolidin-1-yl-propyl)-piperidin-1-yl]-pyrimidine] stands 103%. Same read-out and setting: under `COc1cc(C)c(S(=O)(=O)N2CC(Oc3nccc(N(C)CCCN4CCC(c5ccccc5)(N(C)C)CC4)n3)C2)c(C)c1` [G_CC-126, 3-(4-dimethylamino-4-phenyl-piperidin-1-yl)-propyl-[2-[1-[(4-methoxy-2,6-dimethyl-phenyl)sulfonyl]-azetidin-3-yl]oxy-pyrimidin-4-yl]-methyl-amine] stands 77%. Same read-out and setting: the figure for `COc1cc(C)c(S(=O)(=O)N(C)C(COc2nccc(N(C)CCN3CCC(O)(c4cccnc4)CC3)n2)c2ccccc2)c(C)c1` (stereo not shown) [G_CC-138, N-[2-[4-[2-(4-hydroxy-4-pyridin-3-yl-piperidin-1-yl)-ethyl-methyl-amino]-pyrimidin-2-yl]oxy-1-phenyl-ethyl]-4-methoxy-N,2,6-trimethyl-benzenesulfonic acid amide] is 56%. As for `COc1cc(C)c(S(=O)(=O)N2c3ccccc3C[C@H]2COc2ccnc(N3CCC(CCN4CCCCC4)CC3)n2)c(C)c1` [H_CC-028, (2S)-1-(4-methoxy-2,6-dimethylphenyl)sulfonyl-2-[[2-[4-[2-(1-piperidyl)ethyl]-1-piperidinyl]-4-pyrimidinyl]oxymethyl]indoline], the inhibition at 10 µM worked out at 83%. On the same count and under the same terms, the figure for `COc1cc(C)c(S(=O)(=O)N2CCCC(Oc3ccnc(N(C)CCN4CCC(c5ccccc5)(N(C)C)CC4)n3)C2)c(C)c1` (stereo not shown) [H_CC-065, 2-(4-dimethylamino-4-phenyl-piperidin-1-yl)-ethyl-[4-[1-[(4-methoxy-2,6-dimethyl-phenyl)sulfonyl]-piperidin-3-yl]oxy-pyrimidin-2-yl]-methyl-amine] is 52%.

As to `COc1cc(C)c(S(=O)(=O)N2CCCCC2COc2nccc(N3CCC4(CCN(Cc5ccccc5)C4)C3)n2)c(C)c1` (stereo not shown) [G_CC-022, 3-benzyl-7-[2-[[1-(4-methoxy-2,6-dimethylphenyl)sulfonyl-2-piperidinyl]methoxy]-4-pyrimidinyl]-3,7-diazaspiro[4.4]nonane], the inhibition at 10 µM came out at 104%. On the same count and under the same terms, the figure for `COc1cc(C)c(S(=O)(=O)N2CCCCC2COc2ccnc(N3CCC(O)(c4cccnc4)CC3)n2)c(C)c1` (stereo not shown) [H_CC-007, 1-[4-[[1-(4-methoxy-2,6-dimethylphenyl)sulfonyl-2-piperidinyl]methoxy]-2-pyrimidinyl]-4-(3-pyridyl)-4-piperidinol] is 71%; for `COc1cc(C)c(S(=O)(=O)N2CCC[C@H]2COc2ccnc(N3CCN(C)CC3)n2)c(C)c1` [H_CC-008, 4-[[(2S)-1-(4-methoxy-2,6-dimethylphenyl)sulfonyl-2-pyrrolidinyl]methoxy]-2-(4-methyl-1-piperazinyl)pyrimidine] it is 95%. Consider `COc1cc(C)c(S(=O)(=O)N2CCC[C@H]2COc2nccc(N3CCN(c4ncccn4)CC3)n2)c(C)c1` [G_CC-018, 2-[[(2S)-1-(4-methoxy-2,6-dimethylphenyl)sulfonyl-2-pyrrolidinyl]methoxy]-4-[4-(2-pyrimidinyl)-1-piperazinyl]pyrimidine], for which the inhibition at 10 µM was determined as 97%. On the same count and under the same terms, under `COc1cc(C)c(S(=O)(=O)N2CCCCC2COc2ccnc(N(C)CCCN3CCC(c4ccccc4)(N(C)C)CC3)n2)c(C)c1` (stereo not shown) [H_CC-061, 3-(4-dimethylamino-4-phenyl-piperidin-1-yl)-propyl-[4-[[1-[(4-methoxy-2,6-dimethyl-phenyl)sulfonyl]-piperidin-2-yl]-methoxy]-pyrimidin-2-yl]-methyl-amine] stands 105%; under `O=S(=O)(c1cccc(C(F)(F)F)c1)N(CCCc1ccnc(N2CCC3(CCN(c4ccncc4)CC3)CC2)n1)C1CC1` [Example I-008, N-cyclopropyl-N-[3-[2-(9-pyridin-4-yl-3,9-diazaspiro[5.5]undecan-3-yl)-pyrimidin-4-yl]-propyl]-3-(trifluoromethyl)-benzenesulfonic acid amide], 94%; under `COc1cc(C)c(S(=O)(=O)N2CCCCC2COc2nccc(N(C)CCN3CCC(c4ccccc4)(N4CCCC4)CC3)n2)c(C)c1` (stereo not shown) [G_CC-073, [2-[[1-[(4-methoxy-2,6-dimethyl-phenyl)sulfonyl]-piperidin-2-yl]-methoxy]-pyrimidin-4-yl]-methyl-[2-(4-phenyl-4-pyrrolidin-1-yl-piperidin-1-yl)-ethyl]-amine], 101%. The same measure, in the same setting: the figure for `COc1cc(C)c(S(=O)(=O)N(C)C(COc2ccnc(N3CCN(c4ccncc4)CC3)n2)c2ccccc2)c(C)c1` (stereo not shown) [H_CC-036, 4-methoxy-N,2,6-trimethyl-N-[1-phenyl-2-[[2-[4-(4-pyridyl)-1-piperazinyl]-4-pyrimidinyl]oxy]ethyl]benzenesulfonamide] is 71%.
